From patent US20240368132A1, “ROCK2 INHIBITORS AND USES THEREOF” (President and Fellows of Harvard College, priority 2021, published 2024)

Experiments:
ROCK1 = target: T1, ROCK1 (Homo sapiens, UniProt Q13464); test: ROCK1 kinase assay (Reaction Biology Hot Spot kinase assay); type: biochemical; details: purified kinase, 33P-ATP (10 μM), P81 filter-binding method
T1 construct: purchased Reaction Biology
Procedure: (§1) ROCK2 and ROCK] kinase assays
(§2) ROCK2 and ROCK1 enzyme potencies were determined by Reaction Biology (www.reactionbiology.com) using their Hot Spot kinase Assay. The base reaction buffer for the assay was 20 mM Hepes (pH 7.5), 10 mM MgCl2, 1 mM EGTA, 0.01% Brij35, 0.02 mg/mL BSA, 0.1 mM Na3VO4, and 2 mM DTT with a 1% DMSO concentration. Required cofactors were added individually to each kinase reaction. The substrate was freshly prepared in the reaction buffer described above, and then cofactors were delivered. The purified kinase was added to the substrate solution and then gently mixed. Compounds were added from 100% DMSO into the kinase reaction mixture by Acoustic technology (Echo550; nanoliter range) and then incubated for 20 min at room temperature. ^33P-ATP (10 μM) was delivered to initiate the reaction, and then the mixture was incubated again for two hours at room temperature. […] Nat. Biotechnol. 2011 Oct. 30; 29(11):1039-45. doi: 10.1038/nbt.2017.
(§3) The compounds were categorized based on IC50 value as “+”, “++”, “+++”, and “++++”. The category “+” refers to compounds with ROCK IC50 value of >10 μM. The category “++” refers to compounds with a ROCK IC50 value of 10 to 3 μM. The category “+++” refers to compounds with ROCK IC50 value of 3 to 0.3 μM. The category “++++” refers to compounds with a ROCK IC50 value of <0.3 μM. “ND” refers to “not determined.” The compound of an “Example Number” is the final product of an Example entitled the Example Number.

ROCK2 = target: T2, ROCK2 (Homo sapiens, UniProt O75116); test: ROCK2 kinase assay (Reaction Biology Hot Spot kinase assay); type: biochemical; details: purified kinase, 33P-ATP (10 μM), P81 filter-binding method
T2 construct: purchased Reaction Biology
T2 sequence (O75116 whole entry): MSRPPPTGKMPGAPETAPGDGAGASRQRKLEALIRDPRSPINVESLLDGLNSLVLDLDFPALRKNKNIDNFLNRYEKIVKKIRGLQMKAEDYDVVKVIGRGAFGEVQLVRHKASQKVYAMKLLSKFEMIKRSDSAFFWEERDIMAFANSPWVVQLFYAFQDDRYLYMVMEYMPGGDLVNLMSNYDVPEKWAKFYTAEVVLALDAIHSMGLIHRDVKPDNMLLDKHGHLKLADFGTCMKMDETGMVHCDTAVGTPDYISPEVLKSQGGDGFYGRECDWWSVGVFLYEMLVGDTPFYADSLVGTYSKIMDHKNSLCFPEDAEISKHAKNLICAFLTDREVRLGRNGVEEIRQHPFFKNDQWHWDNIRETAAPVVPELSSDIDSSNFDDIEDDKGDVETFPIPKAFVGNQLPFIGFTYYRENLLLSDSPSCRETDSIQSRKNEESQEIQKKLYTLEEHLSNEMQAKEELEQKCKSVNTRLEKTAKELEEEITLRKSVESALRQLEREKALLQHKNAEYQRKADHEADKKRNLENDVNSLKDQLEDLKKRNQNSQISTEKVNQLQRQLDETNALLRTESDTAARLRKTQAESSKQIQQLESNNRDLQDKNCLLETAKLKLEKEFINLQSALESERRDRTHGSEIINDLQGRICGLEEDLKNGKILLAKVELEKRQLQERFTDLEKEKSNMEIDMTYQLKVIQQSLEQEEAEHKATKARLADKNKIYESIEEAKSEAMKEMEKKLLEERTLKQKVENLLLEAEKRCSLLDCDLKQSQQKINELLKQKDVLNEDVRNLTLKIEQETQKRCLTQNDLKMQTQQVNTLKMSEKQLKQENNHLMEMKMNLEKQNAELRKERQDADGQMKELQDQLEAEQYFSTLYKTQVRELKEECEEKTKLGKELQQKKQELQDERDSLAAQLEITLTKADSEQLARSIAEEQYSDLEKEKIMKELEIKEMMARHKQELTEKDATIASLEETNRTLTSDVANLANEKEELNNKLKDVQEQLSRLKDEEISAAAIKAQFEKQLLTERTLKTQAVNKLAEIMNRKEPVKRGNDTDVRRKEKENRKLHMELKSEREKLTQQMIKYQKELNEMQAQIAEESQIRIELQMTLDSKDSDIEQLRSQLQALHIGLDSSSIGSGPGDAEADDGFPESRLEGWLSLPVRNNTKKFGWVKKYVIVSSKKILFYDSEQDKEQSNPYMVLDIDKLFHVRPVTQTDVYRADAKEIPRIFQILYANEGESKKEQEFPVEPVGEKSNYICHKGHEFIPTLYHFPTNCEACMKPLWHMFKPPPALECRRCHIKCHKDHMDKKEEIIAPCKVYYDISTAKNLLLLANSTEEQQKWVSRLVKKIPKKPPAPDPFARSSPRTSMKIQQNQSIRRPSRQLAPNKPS
Procedure: as §1, §2, §3

T1 sequence (Q13464 whole entry): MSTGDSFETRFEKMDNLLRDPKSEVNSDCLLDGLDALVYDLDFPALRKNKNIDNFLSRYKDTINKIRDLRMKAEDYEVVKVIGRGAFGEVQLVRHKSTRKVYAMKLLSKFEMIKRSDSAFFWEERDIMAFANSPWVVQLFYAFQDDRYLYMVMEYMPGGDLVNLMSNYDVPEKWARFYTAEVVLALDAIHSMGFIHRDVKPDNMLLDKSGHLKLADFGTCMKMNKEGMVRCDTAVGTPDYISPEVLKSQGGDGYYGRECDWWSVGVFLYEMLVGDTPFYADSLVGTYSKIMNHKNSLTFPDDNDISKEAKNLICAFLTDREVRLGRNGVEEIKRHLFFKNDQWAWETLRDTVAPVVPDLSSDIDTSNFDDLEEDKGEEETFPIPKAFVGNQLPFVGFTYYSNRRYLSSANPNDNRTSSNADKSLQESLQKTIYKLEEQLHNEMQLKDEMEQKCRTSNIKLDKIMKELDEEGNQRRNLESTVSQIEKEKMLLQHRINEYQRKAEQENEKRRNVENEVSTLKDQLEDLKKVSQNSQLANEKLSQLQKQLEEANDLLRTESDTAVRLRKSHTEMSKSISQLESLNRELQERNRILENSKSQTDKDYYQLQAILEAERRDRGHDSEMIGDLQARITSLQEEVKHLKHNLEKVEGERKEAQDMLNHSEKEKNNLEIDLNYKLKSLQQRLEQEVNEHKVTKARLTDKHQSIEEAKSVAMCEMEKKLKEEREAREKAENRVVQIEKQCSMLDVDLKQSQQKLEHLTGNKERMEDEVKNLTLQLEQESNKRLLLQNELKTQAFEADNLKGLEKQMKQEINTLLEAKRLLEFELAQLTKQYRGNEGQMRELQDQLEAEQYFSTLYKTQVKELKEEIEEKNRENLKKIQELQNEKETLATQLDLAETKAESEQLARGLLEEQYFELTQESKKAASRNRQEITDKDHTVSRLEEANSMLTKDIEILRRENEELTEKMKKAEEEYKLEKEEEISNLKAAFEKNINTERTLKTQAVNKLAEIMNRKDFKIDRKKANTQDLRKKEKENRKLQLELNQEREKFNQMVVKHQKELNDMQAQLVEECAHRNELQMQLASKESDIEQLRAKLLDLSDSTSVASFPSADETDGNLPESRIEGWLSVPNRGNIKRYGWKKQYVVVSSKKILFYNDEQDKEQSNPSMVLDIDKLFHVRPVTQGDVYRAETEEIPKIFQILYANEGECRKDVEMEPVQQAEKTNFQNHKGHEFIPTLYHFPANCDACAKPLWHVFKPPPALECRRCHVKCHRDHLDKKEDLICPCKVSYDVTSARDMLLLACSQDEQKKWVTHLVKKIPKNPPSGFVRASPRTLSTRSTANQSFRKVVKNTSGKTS

For O=C(Nc1cccc(-n2nc(Nc3ccc4[nH]ncc4c3)c3ccccc32)c1)c1c[nH]cn1 [Example 22], the IC50 (ROCK1) was 3000 to 10000 nM and the IC50 (ROCK2) was 300 to 3000 nM.

For Cn1cc(C(=O)Nc2cncc(-n3nc(Nc4ccc5[nH]ncc5c4Cl)c4ccccc43)c2)cn1 [Example 54, N-(5-(3-((4-chloro-1H-indazol-5-yl)amino)-1H-indazol-1-yl)pyridin-3-yl)-1-methyl-1H-pyrazole-4-carboxamide], the IC50 (ROCK1) was greater than 10000 nM and the IC50 (ROCK2) was greater than 10000 nM.

In the case of COc1cc(-n2cc(C)c(Nc3ccc4[nH]ncc4c3Cl)n2)ccc1C(=O)N1CCCC1 [Example 89], the IC50 (ROCK1) is reported as greater than 10000 nM and the IC50 (ROCK2) is reported as 300 to 3000 nM.

Cn1cc(C(=O)Nc2cccc(-n3nc(Nc4ccc5[nH]ncc5c4Cl)c4cccnc43)c2)cn1 [Example 60] showed an IC50 (ROCK1) of less than 300 nM and an IC50 (ROCK2) of less than 300 nM.

In the case of Cn1cc(C(=O)Nc2cccc(-n3nc(Nc4ccc5[nH]ncc5c4Cl)c4ccccc43)c2)cn1 [Example 31], the IC50 (ROCK1) is reported as 300 to 3000 nM and the IC50 (ROCK2) is reported as less than 300 nM.

With CC(C)NC(=O)COc1ccc(-n2nc(Nc3ccc4[nH]ncc4c3)c3ccccc32)cc1 [Example 16] the IC50 (ROCK1) was greater than 10000 nM and the IC50 (ROCK2) was 300 to 3000 nM.

With O=C(Nc1cccc(-c2noc(Nc3ccc4[nH]ncc4c3)n2)c1)c1cccnc1 [Example 44] the IC50 (ROCK1) was less than 300 nM and the IC50 (ROCK2) was less than 300 nM.

Cn1cc(C(=O)Nc2cccc(-c3noc(Nc4ccc5[nH]ncc5c4Cl)n3)c2)cn1 [Example 62, N-(3-(5-((4-chloro-1H-indazol-5-yl)amino)-1,2,4-oxadiazol-3-yl)phenyl)-1-methyl-1H-pyrazole-4-carboxamide] was tested, and the IC50 (ROCK1) was less than 300 nM and the IC50 (ROCK2) was less than 300 nM.

COc1cc(-c2nnc(Nc3ccc4[nH]ncc4c3Cl)o2)ccc1OCC(=O)NC(C)C [Example 72, 2-[4-[5-[(4-chloro-1H-indazol-5-yl)amino]-1,3,4-oxadiazol-2-yl]-2-methoxy-phenoxy]-N-isopropyl-acetamide] gave an IC50 (ROCK1) of 300 to 3000 nM and an IC50 (ROCK2) of less than 300 nM.

Cn1cc(C(=O)Nc2cc(-c3nnc(Nc4ccc5[nH]ncc5c4Cl)o3)cn(C)c2=O)cn1 [Example 67, N-[5-[5-[(4-chloro-1H-indazol-5-yl)amino]-1,3,4-oxadiazol-2-yl]-1-methyl-2-oxo-3-pyridyl]-1-methyl-pyrazole-4-carboxamide] gave an IC50 (ROCK1) of less than 300 nM and an IC50 (ROCK2) of less than 300 nM.

With Cn1cc(-c2nnc(Nc3ccc4[nH]ncc4c3Cl)o2)cc(NC(=O)c2ccccc2F)c1=O [Example 52, N-(5-(5-((4-chloro-1H-indazol-5-yl)amino)-1,3,4-oxadiazol-2-yl)-1-methyl-2-oxo-1,2-dihydropyridin-3-yl)-2-fluorobenzamide] the IC50 (ROCK1) was less than 300 nM and the IC50 (ROCK2) was less than 300 nM.

COc1ncc(C(=O)Nc2cccc(-n3nc(Nc4ccc5[nH]ncc5c4)c4ccccc43)c2)cn1 [Example 25] was tested, and the IC50 (ROCK1) was 300 to 3000 nM and the IC50 (ROCK2) was 300 to 3000 nM.

For COc1cc(-n2ccc(Nc3ccc4[nH]ncc4c3)n2)ccc1OCC(=O)NC(C)C [Example 11], the IC50 (ROCK1) was greater than 10000 nM and the IC50 (ROCK2) was 300 to 3000 nM.

Work on Cn1cc(C(=O)Nc2cc(-n3nc(Nc4ccc5[nH]ncc5c4Cl)c4ccccc43)ccn2)cn1 [Example 53, N-(4-(3-((4-chloro-1H-indazol-5-yl)amino)-1H-indazol-1-yl)pyridin-2-yl)-1-methyl-1H-pyrazole-4-carboxamide] yielded an IC50 (ROCK1) of 3000 to 10000 nM and an IC50 (ROCK2) of less than 300 nM.

Cn1cc(C(=O)Nc2cccc(-c3nc(Nc4ccc5[nH]ncc5c4Cl)no3)c2)cn1 [Example 63, N-(3-(3-((4-chloro-1H-indazol-5-yl)amino)-1,2,4-oxadiazol-5-yl)phenyl)-1-methyl-1H-pyrazole-4-carboxamide] showed an IC50 (ROCK1) of less than 300 nM and an IC50 (ROCK2) of less than 300 nM.

COc1cc(-n2ccc(Nc3ccc4[nH]ncc4c3Cl)n2)ccc1OCC(=O)NC(C)C [Example 12] showed an IC50 (ROCK1) of 300 to 3000 nM and an IC50 (ROCK2) of less than 300 nM.

With COc1cc(-n2cc(C)c(Nc3ccc4[nH]ncc4c3Cl)n2)ccc1C(=O)NCC(F)(F)F [Example 88] the IC50 (ROCK1) was greater than 10000 nM and the IC50 (ROCK2) was less than 300 nM.

Compound O=C(Cc1ccccn1)Nc1cccc(-n2nc(Nc3ccc4[nH]ncc4c3)c3ccccc32)c1 [Example 26] has an IC50 (ROCK1) of 3000 to 10000 nM and an IC50 (ROCK2) of 300 to 3000 nM.
